Data: US11998554B2, “Composition comprising lipoic acid and vitamin D for the prevention and the treatment of neurodegenerative diseases and peripheral neuropathies” (URIACH ITALY S.R.L., priority 2018, dated 2024)

What was measured:
[1] = test system: astrocytes; experiment: Mitochondrial membrane potential (JC-1) under oxidative conditions; format: cell-based, mouse; conditions: 50 μM LA, 100 nM vitD; for mitochondrial potential without H2O2 (in words): p<0.05; for dissipation of the mitochondrial potential after post-treatment, with respect to H2O2 alone (in words): after 200 μM H2O2
[2] = test system: astrocytes; experiment: MTT cell viability under oxidative conditions (H2O2 pre-treatment); format: cell-based, mouse; conditions: for cell viability after post-treatment (in words): 200 μM H2O2 pre-treatment, then 50 μM LA, 100 nM vitD, 24 hours
[3] = test system: PKA; experiment: Western blot expression of p-PKA under oxidative conditions; format: cell-based, mouse; conditions: for expression of PKA without H2O2 (in words): 50 μM LA, 100 nM vitD; for expression of PKA after H2O2 (in words): post-stimulation after 200 μM H2O2
[4] = test system: cytochrome C; experiment: Western blot expression of cytochrome C under oxidative conditions; format: cell-based, mouse; conditions: for expression of cytochrome C without H2O2 (in words): 50 μM LA, 100 nM vitD; for expression of cytochrome C after H2O2 (in words): stimulation after H2O2, p<0.05
[5] = test system: astrocytes; experiment: Production of ROS (superoxide anion release) under oxidative conditions; format: cell-based, mouse; conditions: for reduction of production of ROS with respect to H2O2 alone: post-treatment after 200 μM H2O2
[6] = test system: astrocytes; experiment: MTT cell viability in astrocytes pre-treated with Fe^3+; format: cell-based, mouse; conditions: for cell viability after post-treatment following Fe^3+ (in words): 300 μM Fe^3+ 6 days, then treatment another 6 days
[7] = test system: p53; experiment: Activity of p53 (ELISA on nuclear extracts) under oxidative conditions; format: cell-based, mouse; conditions: for activity of p53 without H2O2 vs control (in words): 50 μM LA, 100 nM vitD, p<0.05; for activity of p53 after H2O2 (in words): stimulation after 200 μM H2O2
[8] = test system: astrocytes; experiment: Production of ROS in astrocytes pre-treated with Fe^3+; format: cell-based, mouse; conditions: for reduction of production of ROS with respect to Fe^3+ alone: 300 μM Fe^3+ 6 days, then 50 μM LA, 100 nM vitD another 6 days
[9] = test system: astrocytes; experiment: Iron quantification assay in astrocytes pre-treated with Fe^3+; format: cell-based, mouse; conditions: for reduction of accumulation of iron against Fe^3+ alone: 300 μM Fe^3+ 6 days, then 50 μM LA, 100 nM vitD another 6 days
[10] = test system: astrocytes; experiment: MTT cell viability, dose- and time-dependent, physiological conditions; format: cell-based, mouse; conditions: 1440 min, 50 μM LA, 100 nM vitD
Method: The cultures of mouse astrocytes were prepared from male and female C57BL/6 baby mice, following a known conventional technique according to the national guidelines for the use and care of laboratory animals. Basically, within 24 hours from birth, the baby mice were euthanized and the corticals were cut, […] minced, mechanically digested and left to rest for 30 minutes at ambient temperature. The cell suspension was then centrifuged at 800 rpm (revolutions per minute) for 5 minutes. The pelleted cells were resuspended in neuronal basal medium (Sigma-Aldrich), supplemented with fetal bovine serum at 5% (FBS, Gibco), penicillin/streptomycin 1% (Sigma-Aldrich) and L-glutamine 2 mM (Sigma-Aldrich), placed in multiple wells and kept in culture for 6 days prior to the treatment. […] Cell viability was determined by measuring absorbance at 570 nm with correction at 690 nm, using a spectrometer (VICTOR X4, multi-label plate reader) and calculated by comparing the results with the control. […] Firstly, the effect depending on the concentration of LA alone (comprised between 10 μM and 100 μM) on the cell viability over 24 hours (starting from 15 minutes to 1440 minutes) was analysed, with the aim of identifying the best concentration to be used. FIG. 1(a) illustrates the time-dependent and dose-response studies (ranging from 10 μM to 100 μM) of LA measured in astrocytes.

[11] = test system: p53; experiment: Activity of p53 (ELISA) in astrocytes pre-treated with Fe^3+; format: cell-based, mouse; conditions: 300 μM Fe^3+ 6 days, then 50 μM LA, 100 nM vitD another 6 days
[12] = test system: amyloid precursor protein (APP); experiment: Quantification of APP (ELISA) in astrocytes pre-treated with Fe^3+; format: cell-based, mouse; conditions: for reduction of level of APP against 300 μM Fe^3+: 300 μM Fe^3+ 6 days, then 50 μM LA, 100 nM vitD another 6 days
[13] = test system: blood-brain barrier (BBB) experimental model; experiment: Blood-brain barrier (BBB) experimental model permeability (astrocytes/HUVEC Transwell co-culture); conditions: 1440 min; 100 nM vitD, 50 μM LA alone
[14] = test system: PI3K-Akt; experiment: PI3K-Akt activity (ELISA InstantOne) under oxidative conditions; format: cell-based, mouse; conditions: for PI3K-Akt activity without H2O2 (in words): 24 hours, 50 μM LA, 100 nM vitD; for Akt activity after post-treatment following H2O2 (in words): after 200 μM H2O2
[15] = test system: ERK/MAPK; experiment: ERK/MAPK activity (ELISA) in astrocytes pre-treated with Fe^3+; format: cell-based, mouse; conditions: 300 μM Fe^3+ 6 days, then treatment another 6 days, p<0.05
[16] = test system: ERK/MAPK; experiment: ERK/MAPK activity (ELISA InstantOne) under oxidative conditions; format: cell-based, mouse; conditions: for ERK/MAPK activity without H2O2 (in words): 24 hours, 50 μM LA, 100 nM vitD; for ERK activity after post-treatment following H2O2 (in words): after 200 μM H2O2
[17] = test system: SOD3; experiment: Western blot expression of SOD3 under oxidative conditions; format: cell-based, mouse; conditions: post-stimulation after 200 μM H2O2
[18] = test system: SOD3; experiment: Western blot expression of SOD3 in astrocytes pre-treated with Fe^3+; format: cell-based, mouse; conditions: 300 μM Fe^3+ 6 days, then 50 μM LA or 100 nM vitD 6 more days, p<0.05
[19] = test system: iNOS; experiment: Western blot expression of iNOS under oxidative conditions; format: cell-based, mouse; conditions: post-stimulation after 200 μM H2O2

| SMILES | mitochondrial potential without H2O2 (in words) [1] | dissipation of the mitochondrial potential after post-treatment, with respect to H2O2 alone (in words) [1] | cell viability after post-treatment (in words) [2] | expression of PKA without H2O2 (in words) [3] | expression of PKA after H2O2 (in words) [3] | expression of cytochrome C without H2O2 (in words) [4] | expression of cytochrome C after H2O2 (in words) [4] | reduction of production of ROS with respect to H2O2 alone ([5]; 50 μM LA, 100 nM vitD) | cell viability after post-treatment following Fe^3+ (in words) [6] | activity of p53 without H2O2 vs control (in words) [7] | activity of p53 after H2O2 (in words) [7] | reduction of production of ROS with respect to Fe^3+ alone [8] | reduction of accumulation of iron against Fe^3+ alone [9] | cell viability, maximum effect with respect to the control [10] | reduction of activation of p53 with respect to 300 μM Fe^3+ [11] | reduction of level of APP against 300 μM Fe^3+ [12] | absorption capacity through the blood-brain barrier (basolateral volume analysis) with respect to the control [13] | PI3K-Akt activity without H2O2 (in words) [14] | Akt activity after post-treatment following H2O2 (in words) [14] | activation of ERK/MAPK with respect to 300 μM Fe^3+ (in words) [15] | further results |
| --- | --- | --- | --- | --- | --- | --- | --- | --- | --- | --- | --- | --- | --- | --- | --- | --- | --- | --- | --- | --- | --- |
| O=C(O)CCCCC1CCSS1 (racemic) [LA, alpha-lipoic acid] | significant increase of the red fluorescence | significantly inverted | cell viability increased significantly | significant increase | restored the mechanism | results similar to those obtained for p53 | reduced | about 43% | cell viability leads to control values | reduction of the activity of p53 | reduced it significantly | about 68% | about 81% | about 66% | about 84% | about 63% | ~40.5% | activating ERK and Akt mediators | nullified the effects observed previously | significant reduction | production of ROS without H2O2 (in words) ([5]; 50 μM LA, 100 nM vitD, no H2O2, p>0.05 vs control): maintaining the production of ROS below the physiological level; ERK/MAPK activity without H2O2 (in words) [16]: activating ERK and Akt mediators; ERK activity after post-treatment following H2O2 (in words) [16]: nullified the effects observed previously; expression of SOD3 with respect to 200 μM of H2O2 (in words) [17]: significantly reduced; expression of SOD3 after Fe^3+ (in words) [18]: reduced; expression of iNOS with respect to 200 μM of H2O2 (in words) [19]: significantly reduced |
| C=C1CC[C@H](O)C/C1=C/C=C1\CCC[C@]2(C)[C@@H]([C@H](C)CCCC(C)C)CC[C@@H]12 [vitD, cholecalciferol] | significant increase of the red fluorescence | significantly inverted | cell viability increased significantly | significant increase | restored the mechanism | results similar to those obtained for p53 | reduced | ~57% | cell viability leads to control values | reduction of the activity of p53 | reduced it significantly | ~83% | ~88% | about 22% | ~88% | ~55% | about 49.5% | activating ERK and Akt mediators | nullified the effects observed previously | significant reduction | ERK/MAPK activity without H2O2 (in words) [16]: activating ERK and Akt mediators; ERK activity after post-treatment following H2O2 (in words) [16]: nullified the effects observed previously; expression of SOD3 with respect to 200 μM of H2O2 (in words) [17]: significantly reduced; expression of SOD3 after Fe^3+ (in words) [18]: reduced; expression of iNOS with respect to 200 μM of H2O2 (in words) [19]: significantly reduced |
| [Fe+3] [Fe^3+] |  |  |  |  |  |  |  |  |  |  |  |  |  |  |  |  |  |  |  |  | reduction of cell viability with respect to the control ([6]; 300 μM Fe^3+, 6 days): about 23%; increase of production of intracellular ROS with respect to the control ([8]; 300 μM Fe^3+, 6 days): about 60%; increase of intracellular iron accumulation with respect to the control ([9]; 300 μM Fe^3+, 6 days): about 69%; increase of level of APP with respect to the control ([12]; 300 μM Fe^3+, 6 days): about 43% |
| OO [H2O2] |  |  |  |  |  |  |  |  |  |  |  |  |  |  |  |  |  |  |  |  | reduction of cell viability with respect to the control ([2]; 200 μM H2O2): 46%; increase of production of intracellular ROS with respect to the control ([5]; 200 μM stressor alone): about 30%; reduction of activity of Akt with respect to the control ([14]; 200 μM H2O2): ~7%; reduction of activity of ERK with respect to the control ([16]; 200 μM H2O2): about 6% |
